Consider 19 molecules from US20020161528A1, “Tool for lipophilicity determination in drug discovery basic and neutral compounds” (Pfizer Inc., priority 2001, published 2002).

“And” between values parts separate entries of the source, which are not always exact repeats. Equal entries are not always repeated. Where two headings read alike, the source gives them in different places.

A short description of data set [1]: Reference logDoct at pH 7.4: literature shake-flask or countercurrent data, shake-vial and pH-metric determinations, averaged.
The next data set in a line: physchem. As to conditions: pH 7.4.
For data set [2] the following is noted: for log k′w: pH 7.4.
For data set [3] the following is noted: cited from earlier work.
The nature of data set [4]: Semi-automated shake-vial logDoct, Procedure B (1:1 n-octanol / phosphate buffer pH 7.4). The class given is physicochemical. As to conditions: duplicate determinations. From the text:
(§1) The vials were shaken at least overnight.

Data set [5] is described as follows: Shake-vial logDoct, Procedure A (octanol / MOPS buffer). The class given is physicochemical. The note with it: concentration decreased from 1.5 to 0.1 mg, 50:2 octanol:buffer.
From the text: as §1

[6] abbreviates: Table 1, own shake-vial (Procedure A/B) and/or potentiometric determinations only.
The mark [7] stands for this setting: Table 1, capacity factor extrapolated to 0% methanol, average of three to five determinations.
Where [8] appears, read: Table 1, average of own shake-vial/potentiometric determinations and literature references.
Where [9] appears, read: Table 1, average of literature references only, pH 7.4.

Take `NS(=O)(=O)c1cc2c(cc1Cl)NC(C1CC3C=CC1C3)NS2(=O)=O` (stereo not drawn) [Cyclothiazide]: the logDoct in data set [1] (setting [6]) is 2.09. Besides, in the data set “physchem”, the chromatographic logD (usually lipophilicity estimated from chromatographic retention) stood at 2.63. Besides, the “log k′w” value in data set [2] (setting [7]) was 2.15.
On to `N=C(N)NCC1COc2ccccc2O1` (stereo not drawn) [guanoxan], for which the logDoct is −0.83 in data set [3] (literature value (ref. 22)); −0.1 and −0.3 in data set [4]; −1.6 to −1.0 in data set [5]. Besides, in the data set “physchem”, the chromatographic logD is -0.3.
`Oc1ncnc2[nH]ncc12` [Allopurinol]: in data set [1] (setting [8]), the logDoct is recorded as −0.44. Further, the chromatographic logD in the data set “physchem” was -0.1. Moreover, in data set [2] (setting [7]), the “log k′w” value is −0.27.
For the molecule `NS(=O)(=O)c1cc2c(cc1Cl)NC(C(Cl)Cl)NS2(=O)=O` (stereo not drawn) [Trichlormethiazide], in data set [1] (setting [6]), the logDoct is listed as 0.43. In addition, the chromatographic logD in the data set “physchem” stood at 0.5. Also, in data set [2] (setting [7]), the “log k′w” value is 0.26.
`CC(C)N(CCC(C(N)=O)(c1ccccc1)c1ccccn1)C(C)C` (stereo not drawn) [Disopyramide]: the logDoct in data set [1] (setting [6]) is recorded as −0.66. In “physchem”, this molecule gave a chromatographic logD of -1.15. Besides, the “log k′w” value in data set [2] (setting [7]) is reported as −1.21.
In data set [1] (setting [6]), `CCN(CC)CCNC(=O)c1cc(S(C)(=O)=O)ccc1OC` [Tiapride] returned a logDoct of −0.90. The molecule also displayed a chromatographic logD in the data set “physchem” of -0.45. The “log k′w” value in data set [2] (setting [7]) was −0.58.
For `CN1CCN(CC(=O)N2c3ccccc3C(=O)Nc3cccnc32)CC1` [Pirenzepine], the logDoct in data set [1] (setting [6]) is −0.61. The same molecule displayed a chromatographic logD in the data set “physchem” of 0.04. Moreover, in data set [2] (setting [7]), the “log k′w” value is given as −0.15.
Molecule `CNC(=C[N+](=O)[O-])NCCSCc1ccc(CN(C)C)o1` [Ranitidine] registered a logDoct in data set [1] (setting [6]) of −0.29. Further, the chromatographic logD in the data set “physchem” is -0.5.
Turning to `COc1ccc2c(c1)N(C[C@H](C)CN(C)C)c1ccccc1S2` [Methotrimeprazine], the logDoct in data set [1] (setting [6]) stood at 2.77. Moreover, the chromatographic logD in “physchem” is 2.57. Also, the “log k′w” value in data set [2] (setting [7]) is recorded as 2.10.
`CNS(=O)(=O)Cc1ccc2[nH]cc(CCN(C)C)c2c1` [Sumatriptan] registered a logDoct in data set [1] (setting [8]) of −1.00. The chromatographic logD in “physchem” was -0.4. For the same molecule, the “log k′w” value in data set [2] (setting [7]) is reported as −0.54.
With `O=c1n(CCCN2CCN(c3cccc(Cl)c3)CC2)nc2ccccn12` [Trazodone], the logDoct in data set [1] (setting [6]) is 2.54. The molecule also returned a chromatographic logD in the data set “physchem” of 2.97. The “log k′w” value in data set [2] (setting [7]) is given as 2.45.
The molecule `COc1ccc([C@@H]2Sc3ccccc3N(CCN(C)C)C(=O)[C@@H]2OC(C)=O)cc1` [Diltiazem] returned a logDoct in data set [1] (setting [6]) of 2.06. Also, the chromatographic logD in “physchem” was determined as 2. Further, the “log k′w” value in data set [2] (setting [7]) is given as 1.59.
For the molecule `CN/C(=N/CCSCc1nc[nH]c1C)NC#N` [Cimetidine], the logDoct in data set [1] (setting [6]) is 0.35. For the same molecule, the “log k′w” value in data set [2] (setting [7]) was 0.17.
As to `Cc1ncc(-c2csc(N=C(N)N)n2)[nH]1` [Zaltidine], the logDoct in data set [1] (setting [6]) is on record as 0.74. The chromatographic logD in “physchem” was 0.8. Besides, the “log k′w” value in data set [2] (setting [7]) is on record as 0.53.
On to `Clc1cccc(Cl)c1N=C1NCCN1` [Clonidine], for which, in data set [3] (setting [9]), the logDoct was 0.62. The chromatographic logD in the data set “physchem” came to 0.29. Also, the “log k′w” value in data set [2] (setting [7]) is recorded as 0.07.
As for `CN1CCCC1c1cccnc1` (stereo not drawn) [Nicotine], in data set [1] (setting [6]), the logDoct is given as 0.40. Moreover, the chromatographic logD in “physchem” is 0.23. Also, the “log k′w” value in data set [2] is reported as 0.02.
`CCCCNc1ccc(C(=O)OCCN(C)C)cc1` [Tetracaine]: the logDoct in data set [3] (setting [9]) is recorded as 2.29. The molecule further displayed a chromatographic logD in “physchem” of 2.12. Further, the “Res (logDoct − ElogDoct)” value in data set [2] (Table 1) is 0.17. In data set [2] (setting [7]), the “log k′w” value is listed as 1.70.
Regarding `O=[N+]([O-])c1ccc(/C=N/O)o1` [Nifuroxime], the logDoct in data set [3] (setting [9]) is recorded as 1.28. Also, in the data set “physchem”, the chromatographic logD was determined as 1.49. The “log k′w” value in data set [2] (setting [7]) is 1.14.
As to `CNC(=NCCSCc1csc(N=C(N)N)n1)NC#N` [Tiotidine], in data set [1] (setting [6]), the logDoct is 0.57. Further, in the data set “physchem”, the chromatographic logD came out at 0.85. Also, in data set [2] (setting [7]), the “log k′w” value is recorded as 0.57.
